The values that follow come from ChEMBL document CHEMBL4609981, “Discovery of novel nonpeptide small-molecule NRP1 antagonists: Virtual screening, molecular simulation and structural modification” (Bioorg Med Chem, 2020).

In test [1] the target is T1, Neuropilin-1 (Homo sapiens, UniProt O14786). Put plainly: Inhibition of recombinant human biotinylated VEGF-165A expressed in HEK293 cells binding to immobilized recombinant full length human FC-tagged NRP1 (chimera active) expressed in HEK293 cells at 50 uM using TMB as substrate incubated for 2 hrs followed by substrate addition by competitive ELISA relative to control. (An ELISA detects its analyte on a solid surface through an enzyme-linked reagent.)

The target of test [2] is T1, Neuropilin-1. As to the kind of experiment: Inhibition of recombinant human biotinylated VEGF-165A expressed in HEK293 cells binding to immobilized recombinant full length human FC-tagged NRP1 (chimera active) expressed in HEK293 cells using TMB as substrate incubated for 2 hrs followed by substrate addition by competitive ELISA.
Test [3] has as its target Vascular endothelial growth factor receptor 2 (Homo sapiens) (UniProt P35968). Put plainly: Inhibition of recombinant human biotinylated VEGF-165A expressed in HEK293 cells binding to FC-tagged VEGFR2 (unknown origin) using TMB as substrate incubated for 2 hrs followed by substrate addition by competitive ELISA.
In test [4] the target is T1, Neuropilin-1. As to the kind of experiment: Inhibition of biotinylated […] binding to NRP1 (unknown origin) measured after 2 hrs chemiluminescence analysis.
For test [5], the target named is T1, Neuropilin-1. As to the kind of experiment: Inhibition of biotinylated VEGF-165A binding to NRP1 (unknown origin) at 10 uM measured after 2 hrs chemiluminescence analysis relative to control.
In test [6] the target is T1, Neuropilin-1. As to the kind of experiment: Inhibition of recombinant human biotinylated VEGF-165A expressed in HEK293 cells binding to immobilized recombinant full length human FC-tagged NRP1 (chimera active) expressed in HEK293 cells at 11 uM using TMB as substrate incubated for 2 hrs followed by substrate addition by competitive ELISA relative to control.

Active and inactive are the calls of the source. The rule behind the calls is not given here.

T1 sequence (O14786 whole entry): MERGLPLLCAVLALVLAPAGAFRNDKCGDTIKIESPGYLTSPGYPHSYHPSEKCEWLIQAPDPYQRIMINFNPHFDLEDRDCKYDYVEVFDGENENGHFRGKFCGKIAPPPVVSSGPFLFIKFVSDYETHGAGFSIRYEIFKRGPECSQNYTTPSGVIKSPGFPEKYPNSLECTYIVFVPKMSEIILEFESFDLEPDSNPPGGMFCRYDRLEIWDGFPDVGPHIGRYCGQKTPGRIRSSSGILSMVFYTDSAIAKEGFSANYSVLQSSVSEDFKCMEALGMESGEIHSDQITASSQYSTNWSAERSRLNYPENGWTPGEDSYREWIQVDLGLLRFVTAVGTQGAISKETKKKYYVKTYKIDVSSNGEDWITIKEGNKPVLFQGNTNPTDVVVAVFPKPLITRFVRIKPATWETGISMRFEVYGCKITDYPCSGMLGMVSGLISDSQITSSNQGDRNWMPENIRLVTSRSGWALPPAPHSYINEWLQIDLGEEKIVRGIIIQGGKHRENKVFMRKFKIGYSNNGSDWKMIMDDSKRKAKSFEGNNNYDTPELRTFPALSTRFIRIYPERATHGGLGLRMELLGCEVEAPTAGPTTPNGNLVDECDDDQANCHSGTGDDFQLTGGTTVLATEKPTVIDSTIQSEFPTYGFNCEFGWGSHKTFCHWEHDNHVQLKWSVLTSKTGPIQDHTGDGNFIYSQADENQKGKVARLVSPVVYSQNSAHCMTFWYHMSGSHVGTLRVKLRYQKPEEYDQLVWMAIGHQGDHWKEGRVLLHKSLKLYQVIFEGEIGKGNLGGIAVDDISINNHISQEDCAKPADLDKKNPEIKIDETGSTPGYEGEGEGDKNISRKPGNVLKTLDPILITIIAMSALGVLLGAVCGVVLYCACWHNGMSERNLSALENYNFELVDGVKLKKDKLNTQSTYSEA
Sequence of Vascular endothelial growth factor receptor 2 (Homo sapiens) (P35968 whole entry): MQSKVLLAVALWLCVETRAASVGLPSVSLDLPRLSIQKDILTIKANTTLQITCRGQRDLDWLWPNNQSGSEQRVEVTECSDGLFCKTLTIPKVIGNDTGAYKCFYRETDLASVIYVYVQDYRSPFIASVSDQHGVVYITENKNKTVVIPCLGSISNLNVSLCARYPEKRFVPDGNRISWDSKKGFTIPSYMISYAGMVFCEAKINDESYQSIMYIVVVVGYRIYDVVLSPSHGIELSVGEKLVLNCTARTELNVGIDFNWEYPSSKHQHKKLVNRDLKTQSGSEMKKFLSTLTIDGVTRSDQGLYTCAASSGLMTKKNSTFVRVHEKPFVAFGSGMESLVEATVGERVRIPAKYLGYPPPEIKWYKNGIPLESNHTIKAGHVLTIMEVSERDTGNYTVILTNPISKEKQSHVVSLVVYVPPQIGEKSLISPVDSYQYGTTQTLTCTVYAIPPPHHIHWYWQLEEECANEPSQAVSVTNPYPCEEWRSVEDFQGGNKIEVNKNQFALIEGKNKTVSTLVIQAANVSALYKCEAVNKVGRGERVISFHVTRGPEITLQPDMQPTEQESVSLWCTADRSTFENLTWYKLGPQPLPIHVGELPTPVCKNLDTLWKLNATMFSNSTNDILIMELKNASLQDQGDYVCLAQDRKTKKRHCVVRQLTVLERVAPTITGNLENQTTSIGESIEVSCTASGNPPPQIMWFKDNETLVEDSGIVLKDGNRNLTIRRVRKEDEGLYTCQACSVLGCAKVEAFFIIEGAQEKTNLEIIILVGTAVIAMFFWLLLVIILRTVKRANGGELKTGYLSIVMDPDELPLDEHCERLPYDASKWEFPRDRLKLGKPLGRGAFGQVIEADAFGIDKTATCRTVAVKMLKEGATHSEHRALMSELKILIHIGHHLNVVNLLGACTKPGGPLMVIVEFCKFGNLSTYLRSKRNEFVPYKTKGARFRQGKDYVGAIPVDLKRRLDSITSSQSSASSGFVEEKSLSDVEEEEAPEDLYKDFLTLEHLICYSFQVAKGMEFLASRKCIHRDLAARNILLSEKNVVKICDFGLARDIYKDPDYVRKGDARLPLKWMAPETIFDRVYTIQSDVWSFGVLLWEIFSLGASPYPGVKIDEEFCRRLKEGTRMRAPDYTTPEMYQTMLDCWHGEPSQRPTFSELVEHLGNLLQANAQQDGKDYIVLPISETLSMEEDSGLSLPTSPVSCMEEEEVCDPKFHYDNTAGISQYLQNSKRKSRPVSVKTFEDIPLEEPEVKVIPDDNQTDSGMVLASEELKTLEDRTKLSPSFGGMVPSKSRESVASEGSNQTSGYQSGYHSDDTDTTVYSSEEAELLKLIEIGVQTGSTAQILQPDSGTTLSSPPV

In the case of `CCc1nnc(NC(=O)CSc2nnc(-c3ccccc3)n2-c2ccccc2)s1`, in test [1], the inhibition is 4.8%.

Regarding `CCc1nnc(NC(=O)CSc2nnc(-c3ccc(O)cc3)n2-c2cccc(C)c2)s1`, the IC50 in test [2] was 41.7 µM. Moreover, in test [1], the inhibition is 59.9%.

On to `CCc1nnc(NC(=O)CSc2nnc(-c3ccc(C)cc3)n2-c2cccc(C)c2)s1`, for which, in test [2], the IC50 came to 19.1 µM. Besides, the inhibition result in test [3] was “Active”. In addition, the inhibition in test [1] stood at 76%.

For `CCc1nnc(NC(=O)CSc2nnc(-c3ccccc3)n2-c2ccc(Cl)cc2)s1`, the inhibition in test [1] came out at 3.2%.

Turning to `CCc1nnc(NC(=O)CSc2nnc(-c3ccc(N)cc3)n2-c2cccc(C)c2)s1`, the inhibition in test [1] came out at 15.4%.

`CCc1nnc(NC(=O)CSc2nnc(-c3cccnc3)n2-c2cccc(C)c2)s1`: the inhibition in test [1] was found to be 0%.

On to `CCc1nnc(NC(=O)CSc2nnc(-c3ccccc3)n2-c2cccc(OC)c2)s1`, for which the inhibition in test [1] stood at 0%.

Take `O=C(CSc1nnc(-c2ccccc2)n1-c1cccc(Cl)c1)Nc1nnc(C2CC2)s1`: the inhibition in test [1] worked out at 22.5%.

Consider `CCCc1nnc(NC(=O)CSc2nnc(-c3ccccc3)n2-c2cccc(C)c2)s1`, for which the inhibition in test [1] worked out at 47.8%.

For `CCc1nnc(NC(=O)CSc2nnc(-c3ccccc3)n2Cc2cccc(C)c2)s1`, the inhibition in test [1] worked out at 4.1%.

On to `Cc1ccc(-c2nc3ccccc3[nH]2)cc1NC(=S)NC(=O)c1ccc2c(c1)OCCO2`, for which the IC50 in test [4] is 34 µM.

With `CCc1nnc(NC(=O)CSc2nnc(-c3ccccc3)n2-c2ccccc2Cl)s1`, the inhibition in test [1] amounted to 5.3%.

For the compound `CCc1nnc(NC(=O)CSc2nnc(-c3ccccc3)[nH]2)s1`, the inhibition in test [1] was found to be 2.1%.

Take `CCc1nnc(NC(=O)CSc2nncn2-c2cccc(Cl)c2)s1`: the inhibition in test [1] is 0%.

With `CCOc1ccccc1NC(=O)c1ccc(C)c(S(=O)(=O)Nc2ccc(C)cc2)c1`, the inhibition in test [5] came to 32%.

As for `CCc1nnc(NC(=O)CSc2nnc(-c3ccccc3)n2-c2cccc(Cl)c2)s1`, the inhibition in test [1] turned out to be 47.6%.

Turning to `O=C(CSc1nnc(-c2ccccc2)n1-c1cccc(Cl)c1)Nc1nncs1`, the inhibition in test [1] worked out at 20.3%.

With `N=C(N)NCCC[C@H](NC(=O)c1sccc1NS(=O)(=O)c1cccc2nsnc12)C(=O)O`, the IC50 in test [2] lay in the range of 11.1 to 12.7 µM. Moreover, the inhibition result in test [3] was “Active”. For the same compound, the inhibition in test [6] was 49.1 to 49.8%.

In the case of `O=C(CSc1nnc(-c2ccccc2)n1-c1cccc(Cl)c1)Nc1nccs1`, the inhibition in test [1] turned out to be 4%.

For `CCc1nnc(NC(=O)CSc2nnc(-c3ccccc3)n2-c2cccnc2)s1`, the inhibition in test [1] is 0%.

On to `CCc1nnc(NC(=O)CSc2nnc(-c3ccccc3)n2-c2cccc(F)c2)s1`, for which the inhibition in test [1] is 6%.

As for `CCc1nnc(NC(=O)CSc2nnc(Cc3ccccc3)n2-c2cccc(C)c2)s1`, in test [1], the inhibition was 4.3%.

For the compound `CCc1nnc(NC(=O)CSc2nnc(-c3ccc(Cl)cc3)n2-c2cccc(C)c2)s1`, the inhibition in test [1] was 37.4%.

Regarding `CCc1nnc(NC(=O)CSc2nnc(-c3cccc(C)c3)n2-c2cccc(C)c2)s1`, in test [1], the inhibition is 12.6%.

Regarding `CCc1nnc(NC(=O)CSc2nnc(-c3ccccc3)n2-c2cccc(C)c2)s1`, in test [2], the IC50 amounted to 41.1 µM. The inhibition in test [1] came to 66.6%.

For `Cc1cccc(-n2c(SCC(=O)Nc3nnc(C)s3)nnc2-c2ccccc2)c1`, in test [1], the inhibition is 31.5%.

Regarding `COCc1nnc(NC(=O)CSc2nnc(-c3ccccc3)n2-c2cccc(C)c2)s1`, the inhibition in test [1] was found to be 10.3%.

By inhibition is commonly meant how much of the control response was suppressed. One may read the IC50 as the concentration that inhibits the measured activity by half.
